Each structure is given as a SMILES string.

The compound `CC(=O)N1C(C(=O)NCCO[N+](=O)[O-])CSC1c1ccccc1` (stereo unspecified) yielded a melting point of 103 to 105 °C.

For `O=CNc1cccc(-c2ccnc3c(C(=O)c4cccs4)cnn23)c1`, the melting point lay within 233 to 236 °C.

`CS(=O)c1c(C(=N)NO)nn(-c2c(Cl)cc(C(F)(F)F)cc2Cl)c1N` (stereo unspecified): the melting point is 225 to 226 °C.

For `CNC(=O)c1cnn(-c2ccccc2)c1C#N`, the melting point is 203 to 205 °C.

The compound `C=C(C)c1cc(CC)n(-c2ccc([N+](=O)[O-])cc2)n1` yielded a melting point of 61 to 63 °C.

In the case of `c1ccc(COC[C@H]2OC(Sc3ccccc3)[C@H](OCc3ccccc3)[C@@H](OCc3ccccc3)[C@@H]2OCc2ccccc2)cc1` (stereo partly specified), the melting point fell in the range of 85 to 86 °C.

The compound `CC(C)(C)c1cc(CCc2ccccc2NC(=O)N2CCCCCC2)cc(C(C)(C)C)c1O` showed a melting point of 136 to 138 °C.

The compound `CN1CCN(c2cccc3c2C[C@H](NC(=O)c2ccc(-c4ccc(O)cc4)cc2)CC3)CC1` had a melting point of 261 to 262 °C.

`Nc1cccc2cc(C(=O)N3CCc4ccccc4C3)cnc12` gave a melting point of 238 to 240 °C.

Consider `O=C(c1ccc(Cl)cc1)c1ccc(CSC(F)(F)F)cc1`, for which the melting point lay within 63 to 65 °C.

`Cc1cnnc(-c2cccc(C(F)(F)F)c2)c1` yielded a melting point of 114 to 116 °C.

Compound `CCCC1=C(C)C(=O)c2c(oc(Cc3ccc(OC)cc3)c2C)C1=O` showed a melting point of 60 to 61 °C.

Consider `COC(=O)c1cc(C(=O)NCCN2CCOCC2)cc(-n2cccc2)c1`, for which the melting point was 144 to 146 °C.

`CCCCCCCCCCCCCCCCCCCCCCSC[C@H](NC(=O)CCCCCCCCCCCCCCC)C(=O)O` returned a melting point of 90 to 92 °C.

Consider `COc1cc(C=Cc2c(CO)ccc(OC)c2OC)cc(OC)c1OC`, for which the melting point lay in the range of 120 to 121 °C.

For the compound `COC(=O)c1ccc(C(=O)N2CCN(c3ncccc3[N+](=O)[O-])CC2)nc1`, the melting point is 129 to 130 °C.

As for `COc1cc2oc(=O)c(CCCl)c(C)c2cc1OC(C)C`, the melting point was in the range of 125 to 127 °C.

Compound `Cc1c(OCC(F)(F)F)ccnc1CSc1nc2ccccc2n1NCC(C)C` came in with a melting point of 82 to 83 °C.

As for `O=C1NCCN=C1c1ccc([N+](=O)[O-])cc1`, the melting point was in the range of 191 to 192 °C.

For `NC(=O)/C=C1/c2cc(F)ccc2CC1O` (stereo unspecified), the melting point was in the range of 201 to 202 °C.

`O=C(O)Cc1c(C(=O)c2cccc(Cl)c2)[nH]c2cc(Cl)ccc12`: the melting point was 199 to 201 °C.

In turn, `COc1ccc(NC(=O)Nc2ccc(Cl)c(Cl)c2)cc1NC(=S)Nc1cc(Cl)cc(Cl)c1` came in with a melting point of 202 °C.

Regarding `FC(F)(F)C1(c2cc(Cl)cc(Cl)c2)CC(c2ccc(CBr)c(Cl)c2)=NO1` (stereo unspecified), the melting point was in the range of 94 to 97 °C.

Compound `O=C(c1ncc[nH]1)c1cc(F)c(F)cc1Cl` displayed a melting point of 80 to 81 °C.

On to `CC(C)c1cccc(C(C)C)c1NC(=S)CCC(=O)c1ccccc1`, for which the melting point is 168 to 169 °C.

`CNc1cc(N)c(CCCN)c2c1C(=O)c1ccccc1C2=O` displayed a melting point of 142 °C.

In turn, `CCOc1ccc(C2=NN(C(CC)CCCCC(=O)O)C(=O)C3CCCCC23)cc1OCC` (stereo unspecified) yielded a melting point of 90 to 91 °C.

In turn, `CN=C(NC#N)C1=CC(C)(COC)Oc2ccc([N+](=O)[O-])cc21` (stereo unspecified) showed a melting point of 121 to 125 °C.

As for `OCc1nc(Cl)cc(N2CCCC2)n1`, the melting point lay within 90 to 93 °C.

For the compound `CCS(=O)(=O)CCC(=O)NNC(=O)N1Cc2ccccc2Oc2ccc(NS(C)(=O)=O)cc21`, the melting point is 211 to 212 °C.

The compound `Fc1ccc(-c2cc(N3CCNCC3)nnc2C(F)(F)F)cc1` had a melting point of 137 °C.

With `NNC1=NC2CCCc3cccc(c32)N1` (stereo unspecified), the melting point fell in the range of 191 to 193 °C.

Turning to `CN(C(=O)Cn1c(-c2ccc(C(F)(F)F)cc2)nc2cccnc21)c1ccccc1`, the melting point fell in the range of 158 to 159 °C.

The compound `CCc1cc(C#N)cc2c(NCc3ccc(OC)c(Cl)c3)c(C(=O)Oc3c(F)c(F)c(F)c(F)c3F)cnc12` yielded a melting point of 169 to 170 °C.

Consider `O=C(N[C@H](Cc1ccc(C(F)(F)F)cc1)[C@@H](O)c1ccc(F)cc1)c1c2ccccc2cc2ccccc12` (racemic), for which the melting point was 251 to 252 °C.

In the case of `CC(C)(C)OC(=O)N[C@@H](CC(N)=O)C(=O)N1CCN(Cc2ccccc2)CC1`, the melting point fell in the range of 98 to 100 °C.

`Cc1cc(NCc2ccccc2)nc(-n2nc(C)cc2C)n1` came in with a melting point of 136 to 137 °C.

`O=C(OCc1ccccc1)N1CCc2c(sc3nc(CN4C(=O)CCC4=O)c(Cl)c(-c4ccc(C(F)(F)F)cc4)c23)C1` yielded a melting point of 201 to 202 °C.

On to `NC(=O)Cn1c(-c2ccc(Br)cc2)nc2cccnc21`, for which the melting point was above 250 °C.

The compound `Cc1ccc(N(C)S(=O)(=O)c2cccs2)c2[nH]c(C3=NCC(CC(=O)O)S3)cc12` (stereo unspecified) showed a melting point of 269 to 270 °C.

Take `CCOC(=O)OCC(F)(F)Cn1nc(C)c(-c2ccc3c(c2)NC(=O)CO3)c1-c1ccc(F)cc1`: the melting point turned out to be 142 °C.

`Cc1nc(N2CCc3ccccc3CC2)c(C#N)c(=O)n1N(CC(F)(F)F)C(=O)OC(C)(C)C` returned a melting point of 86 to 88 °C.

Compound `CCCCCCCCCCCCCCCCCc1nnc(CO)n1-c1sc(CC)cc1C(=O)c1ccc(C)cc1` yielded a melting point of 68 to 69 °C.

As for `CCOC(=O)C1CCN(c2ccc(N)cc2C#N)CC1`, the melting point came to 98 °C.

For `COC(=O)CCc1ccc(NC(=O)c2cc(C(C)C)c(C(C)C)o2)cc1`, the melting point was 93 to 94 °C.

Compound `CC(=O)N1CC(CCN(C)C)Cc2ccc(OCc3ccc(-c4ccccc4)cc3)cc21` (stereo unspecified) returned a melting point of 62 to 63.5 °C.

In turn, `CN(C)C(=O)c1cc2c(NCCc3ccccc3)ncnc2s1` had a melting point of 157 °C.

For the compound `O=C1c2c(O)ccc(O)c2C(=O)c2c(F)ccc(F)c21`, the melting point was in the range of 301 to 304 °C.

Compound `Cc1ccccc1Nc1nc(N)nc2ccccc12` had a melting point of 273 to 275 °C.

Turning to `Cn1c(-c2ccc(-c3ccccn3)cc2)c(C(=O)N2CCC(OCC(=O)O)CC2)c(=O)n1-c1ccc(C(=N)N)cc1`, the melting point lay in the range of 238 to 249 °C.

`COC(=O)C1=C(C)NC2=C(C(=O)OC2)C1c1ccccc1C` (stereo unspecified) showed a melting point of 224 to 225 °C.

As to `c1ccc(Cn2c(NC3CCN(C4CCCCC4)CC3)nc3ccccc32)cc1`, the melting point is 143 °C.

Turning to `Cc1cccc2nc3c(cc12)oc1cccc(Cl)c13`, the melting point lay in the range of 169 to 172 °C.

For `CN(SN1CCOCC1)C(=O)Nc1ccc(Cl)c(Cl)c1`, the melting point was found to be 142 °C.

The compound `O=C(NCc1ccc(C(F)(F)F)c(F)c1)Nc1cccc2[nH]ccc12` yielded a melting point of 198 °C.

Turning to `CCN(C)C(=O)Nc1c(C(=O)c2ccccc2)[nH]c2cc(Cl)ccc12`, the melting point lay in the range of 159 to 161 °C.

Consider `CCCCCCCCCc1c(O)nc(-c2ccc(-c3ccc(CCCCC)cc3F)cc2)nc1O`, for which the melting point came out at 51 °C.

In turn, `CC(C)(C)c1cc(CCC(=O)O)cc2nc(-c3ccc(-c4nc5cc(CCC(=O)O)cc(C(C)(C)C)c5o4)s3)oc12` had a melting point of 247 to 248 °C.

Consider `Cc1ncc2c(n1)-c1ccc(Cl)cc1C(c1ccccc1F)=NC2`, for which the melting point lay in the range of 104 to 107 °C.

With `CC(=O)OCC(=O)C1(OC(=O)CC(C)C)CCC2C3CC(C)C4=CC(=O)C=CC4(C)C3C(O)CC21C` (stereo unspecified), the melting point is 172 °C.

For the compound `CN(C)CCCc1c[nH]c(-c2ccc(F)cc2)c1-c1ccncc1`, the melting point was in the range of 177 to 179 °C.

What is called melting point is the temperature, or range, at which the solid turns liquid.
